Test results taken from patent US7521396B2, “Substituted (thioxo)carbonylaminophenyluracils” (Bayer CropScience AG, priority 2002, dated 2009).
Read-outs that look alike come from different tables or passages of the source. Marks after values point to notes of the source that are not given here.

Assay: logP by HPLC on reversed-phase column (C 18), EEC Directive 79/831 Annex V.A8
Assay type: physicochemical
[1] = a) acidic range: 0.1% aqueous phosphoric acid, acetonitrile gradient, 43° C.

Structure (SMILES) | logP | other results
CCOC(=O)C(C)(C)ONC(=O)Nc1cc(-n2c(=O)cc(C(F)(F)F)n(C)c2=O)c(F)cc1Cl [Example 100] | logP = 3.11^a) | –
Cn1c(C(F)(F)F)cc(=O)n(-c2cc(NC(=O)NCCC#N)c(Cl)cc2F)c1=O [Example 15] | – | logP [1]: logP = 2.06^a)
CCN(OC)C(=O)Nc1cc(-n2c(=O)cc(C(F)(F)F)n(C)c2=O)c(F)cc1Cl [Example 74] | logP = 2.93^a) | –
CCON(CC)C(=O)Nc1cc(-n2c(=O)cc(C(F)(F)F)n(C)c2=O)c(F)cc1Cl [Example 71] | logP = 3.35^a) | –
Cn1c(C(F)(F)F)cc(=O)n(-c2cc(NC(=O)N3CCC4(CC3)OCCCO4)c(Br)cc2F)c1=O [Example 87] | logP = 2.35^a) | –
Cn1c(C(F)(F)F)cc(=O)n(-c2cc(NC(=O)N3CCC(=O)CC3)c(Br)cc2F)c1=O [Example 93] | – | logP [1]: logP = 1.97^a)
CC(=O)NC1CCN(C(=O)Nc2cc(-n3c(=O)cc(C(F)(F)F)n(C)c3=O)c(F)cc2Br)C1 (centres unmarked) [Example 95] | logP = 1.80^a) | –
CCOC(=O)N1CCN(C(=O)Nc2cc(-n3c(=O)cc(C(F)(F)F)n(C)c3=O)c(F)cc2Cl)CC1 [Example 96] | logP = 2.43^a) | –
CON(C)C(=O)N(C)c1cc(-n2c(=O)cc(C(F)(F)F)n(C)c2=O)c(F)cc1Cl [Example 77] | logP = 2.53^a) | –
CCN(OC)C(=O)Nc1cc(-n2c(=O)cc(C(F)(F)F)n(C)c2=O)c(F)cc1Br [Example 75] | logP = 3.01^a) | –
COC(=O)CSC(=O)Nc1cc(-n2c(=O)cc(C(F)(F)F)n(C)c2=O)c(F)cc1Cl [Example 14] | logP = 2.55^a) | –
CCOC(=O)C1CCCN(C(=O)Nc2cc(-n3c(=O)cc(C(F)(F)F)n(C)c3=O)c(F)cc2Br)C1 (centres unmarked) [Example 1, ethyl 1-[2-bromo-4-fluoro-5-(3-methyl-2,6-dioxo-4-trifluoromethyl-3,6-dihydro-2H-pyrimidin-1-yl)phenylcarbamoyl]piperidine-3-carboxylate] | – | chromatographic logP (reversed-phase C18 HPLC column, pH 2): 2.98
CCOC(=O)N1CCN(C(=O)Nc2cc(-n3c(=O)cc(C(F)(F)F)n(C)c3=O)c(F)cc2Br)CC1 [Example 97] | logP = 2.47^a) | –
COC(=O)CSC(=O)Nc1cc(-n2c(=O)cc(C(F)(F)F)n(C)c2=O)c(F)cc1Br [Example 19] | logP = 2.59^a) | –
CCOC(=O)C1CCCN(C(=O)Nc2cc(-n3c(=O)cc(C(F)(F)F)n(C)c3=O)c(F)cc2Cl)C1 (centres unmarked) [Example 43] | logP = 2.93^a) | –
CCN1CCN(C(=O)Nc2cc(-n3c(=O)cc(C(F)(F)F)n(C)c3=O)c(F)cc2Cl)C1=O [Example 53] | logP = 2 2.81^a) | –
Cn1c(C(F)(F)F)cc(=O)n(-c2cc(NC(=O)N3CCCCO3)c(Cl)cc2F)c1=O [Example 62] | logP = 2.89^a) | –

More lines, main results first:

logP | Structure (SMILES) | other results
logP = 2.74^a) | CCOC(=O)COC(=O)Nc1cc(-n2c(=O)cc(C(F)(F)F)n(C)c2=O)c(F)cc1Cl [Example 126] | –
logP = 2.48^a) | CCOC(=O)CN(C)C(=O)Nc1cc(-n2c(=O)cc(C(F)(F)F)n(C)c2=O)c(F)cc1Cl [Example 121] | –
logP = 2.75^a) | C#CCN(C(=O)N(C)OC)c1cc(-n2c(=O)cc(C(F)(F)F)n(C)c2=O)c(F)cc1Cl [Example 108] | –
logP = 2.41^a) | Cn1c(C(F)(F)F)cc(=O)n(-c2cc(NC(=O)N3CCCS3(=O)=O)c(Br)cc2F)c1=O [Example 103] | –
logP = 1.77^a) | Cn1c(C(F)(F)F)cc(=O)n(-c2cc(NC(=O)N3CCC(O)CC3)c(Cl)cc2F)c1=O [Example 117] | –
logP = 2.74^a) | CCOC(=O)C(C)OC(=O)Nc1cc(-n2c(=O)cc(C(F)(F)F)n(C)c2=O)c(F)cc1Cl (centres unmarked) [Example 127] | –
logP = 3.16^a) | CCOC(=O)C(C)(C)ONC(=O)Nc1cc(-n2c(=O)cc(C(F)(F)F)n(C)c2=O)c(F)cc1Br [Example 101] | –
logP = 2.80^a) | CCN(C(=O)N(C)OC)c1cc(-n2c(=O)cc(C(F)(F)F)n(C)c2=O)c(F)cc1Cl [Example 111] | –
logP = 2.58^a) | CCOC(=O)CONC(=O)Nc1cc(-n2c(=O)cc(C(F)(F)F)n(C)c2=O)c(F)cc1Cl [Example 104] | –
